How the values were obtained:
[1] = test system: ER-positive human breast tumors; experiment: Recurrence outcome of ER-positive breast cancer patients on Tam monotherapy by RB/E2F target gene expression group; type: in vivo
Description: To determine the significance of RB/E2F target gene expression in human breast cancer, a tumor microarray data set representing 60 breast cancer patients with ER-positive disease who are treated with Tam monotherapy is analyzed. The tumor specimens in all cases are both micro- and macrodissected. […] This clustering placed the macro- and micro-dissected samples from 59 of 60 patients in the same gene expression groups, with only 1 tumor signature split between the high and medium gene expression groups on the condition tree.
To address the importance of the RB deficiency signature on therapeutic response, patient outcome is examined. […] For each patient, the time to disease recurrence is known, and a recurrence-free survival curve is generated (FIG. 6C). Patients responded poorly to Tam in the high expression group, wherein the median recurrence-free survival is 62.5 months, and only 35% remained recurrence free. […] Thus, compromised control of the RB/E2F axis is associated with poor response to Tam in human breast cancer.

[2] = test system: MCF7, T47D, and Zr-75-1 cells; experiment: BrdU incorporation under hormone deprivation / antiestrogen (CDT, CDT/Tam, CDT/ICI); type: cell-based, human
Description: To understand the impact of RB deficiency on the response to hormone deprivation therapy, cells are cultured in CDT, CDT/Tam, or in the presence of pure antiestrogen, ICI182780 (CDT/ICI). Following treatment with these modalities, cells are labeled with BrdU to determine the influence of each agent on cell-cycle progression and the corresponding influence of RB knockdown on this response (FIG. 4B). These experiments are recapitulated in the polyclonal populations of T47D and Zr-75-1 donor and siRb88 cells (FIG. 4C). […] To elucidate the long-term growth effects of these therapies, cell proliferation assays are performed over 9 days. RB-proficient and -deficient MCF7 cells are seeded at equal densities and cultured in CDT/Tam (FIG. 4D). […] Similar results are evident in the same experiments with both T47D and Zr-75-1 RB-proficient and -deficient polyclonal pools (FIG. 4E).
RB target gene upregulation is a prognostic indicator in human breast cancers. RB performs a myriad of functions, the most well understood being repression of the E2F family of transcription factors. To determine the specific influence of the E2F axis on bypassing therapy, an activator E2F is overexpressed in wild-type MCF7 cells. Specifically, cells are infected either with an adenovirus encoding E2F3 (ad-E2F3) or a control virus (Ad-LacZ) and are harvested 3 days after infection for immunoblot analysis of levels of known RB-E2F targets (FIG. 5A). […] As expected, no changes are detected in RB levels, and CDK4 serves as a loading control. In order to assess the response to therapeutic intervention, 3 days after infection Ad-E2F3- or AdLacZ-infected MCF7 cells are separated into 2 major treatment groups: hormone therapy and DNA damage therapy. The estrogen ablation group is then cultured in the absence of estrogen and in the presence of Tam and ICI as described above. Alternatively, the cells in the DNA damage therapy group are treated with 16 μM CDDP for 18 hours prior to washing or treatment with 5 Gy IR. Cells from both therapy groups are BrdU labeled, and the replicative fraction of treated cells is determined with respect to untreated control cells (FIG. 5B).
To study the effect of estrogen depletion, cells are cultured for 72 hours in phenol red-free DMEM supplemented with 10% CDT serum with addition of 10^−9 M 4-HydroxyTam or 10^−6 M ICI where indicated. Cell growth assays are performed by trypsinizing cells and counting by trypan blue exclusion every 3 days.
Cells treated with IR are exposed to ^137Cs (dose rate: 0.67 Gy/min) at room temperature in tissue culture media. Culture with clinical grade CDDP for 18 hours is performed for all CDDP treatments. For all proliferation studies, cells are labeled with BrdU for 10 hours or 5 hours for LXSN/LXSN-p53dd infected cells, and BrdU immunofluorescence is performed as previously described. All BrdU results are expressed as a percentage of untreated control cells set to 100%, unless otherwise noted.

[3] = test system: MCF7 donor or siRb xenograft tumors; experiment: Nude mouse xenograft therapeutic study; type: in vivo, nude mice; settings: for tumor response (size at 4-day intervals): E2 pellet removed
Description: The xenograft model system is then utilized to test the response of RB-deficient tumors to CDDP therapy. Tumors are developed in the flanks of mice by injecting MCF7 donor or siRb cells into the flanks of mice and implanting a […] (E2) pellet into the back. When tumors reached 100-110 mm^3, mice received 5 mg/kg CDDP every 4 days for 5 courses.
To assess the role of RB in the therapeutic response of MCF7 cells in vivo, the xenograft model is again employed. Upon the attainment of tumors of approximately 100-120 mm^3, mice are deprived of estrogen and treated with Tam. […] (FIG. 4F). […] All tumors are weighed upon exclusion, and RB-deficient tumors are more than 3 times heavier than control tumors following Tam therapy (FIG. 4G).
Five- to 8-week-old female ovariectomized athymic nude mice are anesthetized, and an E2 pellet (1.7 mg/pellet, 90-day release) or placebo is surgically implanted in the back. Following implantation, 200 μl of a PBS- and phenol red-free Matrigel matrix basement membrane, solution (3:1) containing 2×10^6 cells is injected subcutaneously into the flank, or contralaterally where noted. Tumor volume is measured with calipers every 4 days using the equation V=0.52 (width)^2 ×(length). In the therapeutic studies, when tumor volume reaches 100-120 mm^3, animals are placed into 1 of 3 therapeutic groups (each group containing at least 6 animals): control animals retaining the estrogen pellet, antiestrogen-treated animals, or CDDP-treated animals. Animals in the antiestrogen treatment group are anesthetized, the estrogen pellet is surgically removed, and a Tam pellet (5 mg/pellet, 60-day release) implanted. The CDDP-treated animals receive 5 mg/kg CDDP injected i.p. on a q4dx5 schedule (every 4 days for 5 courses). All animals are injected i.p. with 150 mg/kg BrdU (Sigma-Aldrich) 1 hour prior to euthanization. Xenograft tumors are weighed and fixed in 10% neutral buffered formalin, paraffin embedded, and cut into 5-ÿm sections. For immunohistochemical staining, sections are deparaffinized in xylene and rehydrated through a graded series of ethanol/water solutions. A BrdU detection kit is utilized as recommended by the manufacturer. BrdU incorporation is scored in a blinded manner, and at least 500 cells per section are counted from several random fields.

[4] = high expression group, Tam monotherapy

Compound: CC/C(=C(\c1ccccc1)c1ccc(OCCN(C)C)cc1)c1ccccc1 [Tam, tamoxifen]
- median recurrence-free survival [1, 4]: 62.5 months
- patients remaining recurrence free [1, 4]: 35%
- patients remaining disease free ([1]; low/medium RB target gene expression groups, Tam therapy): greater than 62%
- incidence of cancer recurrence ([1]; patients in the high RB/E2F target gene group, Tam monotherapy): 65%
- incidence of cancer recurrence ([1]; patients in the other 2 groups (low/medium), Tam monotherapy): 38%
- cell-cycle arrest (replicative fraction, BrdU) ([2]; Ad-E2F3-infected versus control infected MCF7 cells, absence of estrogen plus agent): significantly reduced levels of cell-cycle arrest
- cell-cycle inhibition by the agent (BrdU labeling) ([2]; RB-depleted cells (MCF7 siRb28, T47D and Zr-75-1 siRb88), CDT serum plus agent, 3 days): significantly reduced
- cell-cycle progression (BrdU labeling) ([2]; cells harboring functional RB (MCF7, T47D, Zr-75-1 donor), CDT serum plus agent, 3 days, 10^−9 M 4-HydroxyTam or 10^−6 M ICI): elicit cell-cycle inhibition
- tumor response (size at 4-day intervals) ([3]; RB-deficient MCF7 tumors, Tam pellet): did not regress
- tumor size reached in the presence of Tam ([3]; RB-deficient MCF7 tumors, therapy started at approximately 100-120 mm^3): ~150 mm^3
- tumor response (size at 4-day intervals) ([3]; RB-proficient MCF7 tumors, Tam pellet 5 mg/pellet): regressing to nearly immeasurable sizes
- tumor weight, RB-deficient tumors relative to control tumors ([3]; following Tam therapy): more than 3 times

Source: patent publication US8470534B2, “Methods of predicting resistance or sensitivity to therapies for cancer” (priority 2006, dated 2013)
